# Measurements as given in article PMC7467159, “Anaerobic fixed-target serial crystallography” (IUCrJ, 2020).
# Key:
# VioC = molecular target: T1, VioC (Streptomyces vinaceus, UniProt Q6WZB0); experiment: room-temperature serial crystallography; type: binding; conditions: Fe(II)
# T1 construct: codon-optimized, pNIC28-Bsa4, E. coli T7 LysY; His-tag cleaved with TEV protease; SEC purified; Fe(II) enzyme, microcrystals
# IPNS = molecular target: T2, IPNS (Aspergillus nidulans, UniProt P05326); experiment: room-temperature serial crystallography; type: binding; conditions: anaerobic, Fe(II); cysteinyl sulfur ligates Fe
# T2 construct: gene ipnA; recombinant, purified as in Roach et al; Fe(II) enzyme, microcrystals
# T2 sequence (P05326 1-331): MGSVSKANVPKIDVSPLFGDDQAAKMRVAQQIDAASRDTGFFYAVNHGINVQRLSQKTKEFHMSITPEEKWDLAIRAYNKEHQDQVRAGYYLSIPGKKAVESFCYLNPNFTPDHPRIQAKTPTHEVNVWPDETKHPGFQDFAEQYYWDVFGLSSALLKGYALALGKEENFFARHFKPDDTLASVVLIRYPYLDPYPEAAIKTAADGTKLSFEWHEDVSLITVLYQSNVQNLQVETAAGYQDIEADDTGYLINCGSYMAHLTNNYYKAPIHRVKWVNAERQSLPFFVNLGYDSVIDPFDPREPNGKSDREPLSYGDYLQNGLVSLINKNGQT
# T1 sequence (Q6WZB0 whole entry): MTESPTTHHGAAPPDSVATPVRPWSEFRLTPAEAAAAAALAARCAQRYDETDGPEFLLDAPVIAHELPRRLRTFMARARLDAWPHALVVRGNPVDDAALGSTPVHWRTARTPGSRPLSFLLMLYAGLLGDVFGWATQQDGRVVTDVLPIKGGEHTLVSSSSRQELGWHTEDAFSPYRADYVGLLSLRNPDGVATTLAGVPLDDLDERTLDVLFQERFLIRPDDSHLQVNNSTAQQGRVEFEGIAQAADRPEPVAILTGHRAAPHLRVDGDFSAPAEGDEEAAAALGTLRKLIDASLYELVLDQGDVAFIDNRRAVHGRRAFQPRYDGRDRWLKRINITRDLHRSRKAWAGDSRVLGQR
compound,measurement,setting,value
O=C(O)CCC(=O)C(=O)O [2OG],room-temperature serial crystallography,"VioC; anaerobic, L-arginine, bidentate to Fe",the 2OG ligates the Fe in a bidentate manner via its oxalyl group
N=C(N)NCC[C@H](O)[C@H](N)C(=O)O [(3S)-OH-Arg],room-temperature serial crystallography,"VioC; formed in crystallo after 1 h air exposure, succinate, active site",the (3S)-OH-Arg is positioned to coordinate Fe via its (3S)-hydroxyl group
CC(C)[C@@H](NC(=O)[C@H](CS)NC(=O)CCC[C@H](N)C(=O)O)C(=O)O [ACV],room-temperature serial crystallography,IPNS,completed by a water molecule and the cysteinyl sulfur of the substrate ACV
N=C(N)NCCC[C@H](N)C(=O)O [L-arginine],room-temperature serial crystallography,"VioC; anaerobic, 2OG, active site",VioC:Fe:2OG:Arg substrate complex structure reported in this study (PDB entry 6y0n)
O=C(O)CCC(=O)O [succinate],room-temperature serial crystallography,"VioC; formed in crystallo after 1 h air exposure, (3S)-OH-Arg, monodentate to Fe","succinate is bound in a monodentate manner, also trans to His168"
